Laboratory results: ChEMBL document CHEMBL3621181, “Prokineticin Receptor Modulators May Potentially Treat Psychiatric and Neurological Disorders” (ACS Med Chem Lett, 2015)

Biological target: Prokineticin receptor 1 (Homo sapiens, UniProt Q8TCW9)
Assay: Antagonist activity at human PKR1 expressed in rat RBL2H3 cells assessed as inhibition of PK1-stimulated intracellular calcium release incubated for 10 mins prior to PK1 stimulation by FLIPR assay
Type: functional, cell-based, RBL-2H3

Prokineticin receptor 1, sequence (Q8TCW9 whole entry): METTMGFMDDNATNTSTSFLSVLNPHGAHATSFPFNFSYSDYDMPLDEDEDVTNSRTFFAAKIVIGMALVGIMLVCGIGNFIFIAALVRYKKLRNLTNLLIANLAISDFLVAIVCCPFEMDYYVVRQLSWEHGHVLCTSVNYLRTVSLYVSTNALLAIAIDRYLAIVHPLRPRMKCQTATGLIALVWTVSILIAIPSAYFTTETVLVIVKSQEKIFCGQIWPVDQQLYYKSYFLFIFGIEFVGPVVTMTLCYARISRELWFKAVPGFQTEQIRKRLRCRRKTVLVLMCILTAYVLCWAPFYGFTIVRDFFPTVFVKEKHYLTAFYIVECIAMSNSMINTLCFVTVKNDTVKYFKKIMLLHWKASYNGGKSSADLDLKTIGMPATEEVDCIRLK

Structure (SMILES)	IC50
COC1(c2ncc(Cl)cc2C)CCCN(C(=O)c2cn(C)nc2N)C1 (configuration not stated)	> 9000 nM
CC(C)n1c(C2CCCN(C(=O)c3ccnc(N(C)C)c3)C2)nc2ccccc21 (configuration not stated)	320 nM
